From PMC7583847 (2020) come the findings set out here.

Common to all, as to test: UV melting at 260 nm
Test [1] relates to p(dAdT)2 (DNA, polymer) AT. Conditions: Na+ (sodium cacodylate, I = 0.05 M); sodium cacodylate pH 7.0; r = [compound]/[polynucleotide] = 0.2; per base.
For test [2], the system named is polyAH+-polyAH+ (RNA, polymer, protonated adenines (pH 5)) A. Conditions: Na+ (sodium cacodylate, I = 0.05 M); sodium cacodylate pH 5.0; r = 0.2; second transition of poly A-poly U (free Tm 80.1 °C); per base.
Test [3] concerns pApU (RNA, polymer) A/U. Conditions: Na+ (sodium cacodylate, I = 0.05 M); sodium cacodylate pH 7.0; r = [compound]/[polynucleotide] = 0.2; per base.

Consider `COC(=O)C(Cc1cn(CCCC[n+]2c(C=C3C=CN(C)c4ccccc43)sc3ccc(Br)cc32)nn1)NC(=O)c1ccc(C(=O)NC(=N)N)[nH]1` (stereo not drawn), for which the shift in melting temperature (ΔTm) stood at 0.3 ± 0.5 °C in test [1], 1.0 ± 0.5 °C in test [2] and 1.0 ± 0.5 °C in test [3].
Regarding `COC(=O)C(Cc1cn(CCCCN2C=CC(=Cc3sc4ccc(Br)cc4[n+]3C)c3ccccc32)nn1)NC(=O)c1ccc(C(=O)NC(=N)N)[nH]1` (stereo not drawn), the ΔTm stood at 1.1 ± 0.5 °C in test [1], 1.0 ± 0.5 °C in test [2] and 3.0 ± 0.5 °C in test [3].
